# Laboratory results reported in patent US9677109B2, “Rapid determination of microbial growth and antimicrobial susceptibility” (priority 2013, dated 2017).
# Key:
# [1] = test system: E. coli; test: 2-NBDG uptake fluorescence labeling; assay type: cell-based; settings: overnight refrigerator stock, approximately 1 min, 1 μM 2-NBDG
# Text: (§1) 2-NBDG (Molecular Probes) is a fluorescent derivative (green channel) of D-glucose that is internalized by active bacteria.
# [2] = test system: K. pneumoniae; test: 2-NBDG uptake fluorescence labeling; assay type: cell-based; settings: overnight refrigerator stock, approximately 1 min, 1 μM 2-NBDG
# Text: as §1
# [3] = test system: S. aureus; test: 2-NBDG uptake fluorescence labeling; assay type: cell-based; settings: overnight refrigerator culture, viability verified
# Text: as §1
# [4] = test system: H. influenzae; test: 2-NBDG uptake fluorescence labeling; assay type: cell-based; settings: overnight refrigerator culture, viability verified
# Text: as §1
# [5] = test system: S. maltophilia (Steno); test: MADM (BACcel) growth analysis sensitivity, surveillance mini-BAL; assay type: cell-based
# Experimental: (§2) Adult MICU patients with identified surrogate were included within 72 hours of intubation and if anticipated to require MV for >48 h. Moribund state or pregnancy were exclusions. Surveillance mini-BAL (Combicath, Plastimed) was performed on Day 1, 3, 5, 7 and 10 of MV. Samples were split and processed for both a) routine respiratory quantitative microbiological culture and sensitivity assays (>48 h result availability) and b) rapid (<8 h) flowcell/surface-capture assays using the MADM system. Viable microorganisms were identified using growth analysis enhanced by a focused VAP antibody panel (S. aureus, P. aeruginosa, A. baumannii). Untypable organisms were also reported. Sensitivity was assessed using growth analysis. Attending physicians were blinded to MADM system results.
# (§3) BAL sample were prepared, removing debris and separating microorganisms from other sample material. Sample microorganisms were introduced into a multichannel fluidic cassette as described elsewhere herein. Bacteria were concentrated and retained on the lower surface of all flowcells using low-voltage electrical field (5 min). Antibody labeling of bacteria in flowcells was used to aid identification.
# (§4) The automated digital microscopy system was used to perform darkfield imaging of 10 fields of view every 10 minutes for 180 minutes in each flowcell channel. Initial epifluorescence imaging was also performed for antibody detection. […] Identification consisted of probability scores based on microorganism morphology and growth rates. Antibody labeling identification data was also incorporated. Observed microorganisms were then classified as STAU, PSAE, or non-target. Antibiotic responses were used to aid identification when appropriate. Quantitation was performed by counting identified microorganism and computing original specimen CFU/mL.
# [6] = test system: Acinetobacter spp. (ABCC); test: MADM resistance phenotype test, respiratory specimens; assay type: cell-based, Acinetobacter sp.; settings: for MADM resistance phenotype: ABCC specimen (specimen id not given)
# [7] = test system: Pseudomonas aeruginosa (PSAE); test: as above; assay type: cell-based; settings: for MADM resistance phenotype: PSAE
# Experimental: (§5) (ABCC). Concurrent quantitative culture (qCx) was performed on specimens.
# (§6) 20 μL samples of prepared specimen were pipetted into independent flowcell channels and a low-voltage electrical field was applied for 5 minutes. The electrical field concentrated bacteria onto a functional surface coating that immobilized the bacteria on the lower flowcell surface. Each flowcell channel received only one type of test reagent solution that contained a selective agent if required (only for channels used to test AB, sulbactam 32 μg/mL).
# (§7) The instrument acquired images at 10-minutes intervals for 180 minutes, using 10 fields of view in each flowcell channel through a 20× objective. Imaging used darkfield illumination. Identification variables included response to selective agents (AB with sulbactam), cell morphology, growth morphology, and growth rate.
# (§8) Identification algorithms applied to each individual immobilized bacterial cell. The system measured the amount of change in mass over time to compute growth rates. Identification consisted of computing and combining probability scores for morphology, response to selective media, and growth rates to produce a receiver operating characteristic curve (ROC) to derive classification criteria.
# [8] = test system: Pseudomonas aeruginosa (PSAE); test: Culture (Cx) susceptibility result, respiratory specimens; assay type: cell-based
# Experimental: (§9) DHMC specimens were 7-21 days old. […] Controls used standard culturing methods (Cx).
# as §5
# [9] = test system: Enteric; test: MADM (BACcel) growth analysis sensitivity, surveillance mini-BAL; assay type: cell-based; settings: specimen 005-D7, BACcel ID Enteric, 1.26 × 10^5 CFU/ml
# Experimental: as §2, §3, §4
# [10] = test system: Staphylococcus aureus (STAU); test: MADM resistance phenotype test, respiratory specimens; assay type: cell-based
# Experimental: as §5, §6, §7, §8
# [11] = test system: Staphylococcus aureus (STAU); test: Culture (Cx) susceptibility result, respiratory specimens; assay type: cell-based; also: key: S: susceptible; R: resistant
# Experimental: as §9, §5
# [12] = test system: E. coli; test: DiBAC4(3) membrane potential staining; assay type: cell-based; settings: heat-killed E. coli, 10 g/ml DiBAC4(3), 15 min at room temp
# Experimental: DiBAC4(3) (Molecular Probes) is an anionic dye that enters depolarized cells (i.e., cells lacking a membrane potential) and fluoresces in the […] channel when it binds to intracellular proteins or membranes. Using this indicator, 18.5% of an overnight refrigerator stock (control) and 95% of heat-killed E. coli stained with 10 µg/ml DiBAC4(3) after a 15 min incubation period at room temp.
# [13] = test system: Klebsiella pneumoniae (KP); test: MADM ertapenem nonsusceptibility / KPC assay; assay type: cell-based
# Experimental: We adapted a commercial inverted microscope and camera with custom image analysis software and a purpose-built 32-channel disposable fluidic cassette (FIG. 4A). Cassette flowcells (FIG. 4B) had transparent top and bottom surfaces to allow microscope imaging. The bottom surface was coated with poly-L-lysine to immobilize live bacteria.
# We grew isolates on blood agar, suspended colonies in tryptic soy broth for 2 hours, then centrifuged and resuspended log-phase bacteria in low ionic strength electrokinetic buffer.
# MADM system analysis was performed using a 32-channel disposable fluidic cassette (FIG. 4A) to measure growth of immobilized bacteria. We separately tested PA clinical isolates for nonsusceptibility (NS) with amikacin (AN) at 32 μg/mL, and AB isolates with imipenem (IMP) at 8 μg/mL or ceftazidime (CAZ) at 8 μg/mL.
# 10 μL aliquots of 5E+7 CFU/mL were pipetted into separate flowcells for each isolate and test condition. Microorganisms were electrokinetically concentrated onto the flowcell detection surface with an electrical field to the positively charged lower surface to immobilize cells and yield 10-100 bacteria per field of view (FIG. 4B). […] The system measured growth at 10-minute intervals. […] Growth was evaluated, interpreting results for PA, AB, and KP-ETP as NS if growth had not arrested within 3 hours. […]
# [14] = test system: Acinetobacter spp. (ABCC); test: Culture (Cx) susceptibility result, respiratory specimens; assay type: cell-based, Acinetobacter sp.; settings: ABCC specimen (specimen id not given)
# Experimental: as §9, §5
# [15] = test system: E. coli; test: Plasmolysis (cell size response to osmotic pressure); assay type: cell-based; settings: exposed to 0.9% NaCl
# Text: Plasmolysis is a method of detecting membrane integrity by exposing cells to a very hypertonic solution, such as may be performed by subjecting a cell to osmotic pressure by manipulating the concentration of a solute, for example, sodium chloride.
# [16] = test system: damaged membranes; test: Propidium iodide membrane integrity staining; assay type: cell-based; settings: compared with YO-PRO-1
# Text: Propidium iodide (PI; Sigma) is another red fluorescent DNA-intercalcater that penetrates damaged membranes but not intact membranes.
# [17] = test system: heat-killed cells and isopropyl alcohol killed cells; test: CFDA/CFDA-SE esterase fluorescence in killed cells; assay type: cell-based; settings: two hour post-heat-kill delay
# Text: Carboxyfluorescein diacetate/carboxyfluorescein diacetate succinimidyl ester (CFDA/CFDA-SE; Molecular Probes) compounds are converted into amine-reactive fluorescent molecules when cleaved by esterases present within active cells. When CFDA-SE is taken up by live cells, the fluorescent molecule produced by esterase cleavage and amine reaction is retained inside the cell. […] The product formed by uptake and processing of CFDA, on the other hand, should be more “leaky” over time and may exit a dead cell. […] Shorter delay times have not yet been investigated but may be compatible with avoiding false positive results while providing a shorter assay period.
# [18] = specimen 006-D1, BACcel ID Steno, 7.68 × 10^5 CFU/ml
# [19] = specimen 006-D3, BACcel ID Steno, 1.60 × 10^4 CFU/ml
compound,measurement,setting,value
O=[N+]([O-])c1ccc(N[C@H]2C(O)O[C@H](CO)[C@@H](O)[C@@H]2O)c2nonc12 (stereo partly drawn) [2-NBDG],fluorescent labeling,[1],fluorescently labeled
same,fluorescent labeling,[2],fluorescently labeled
same,fluorescent labeling,[3],did not fluoresce
same,fluorescent labeling,[4],did not fluoresce
"NCC[C@H](O)C(=O)N[C@@H]1C[C@H](N)[C@@H](O[C@H]2O[C@H](CN)[C@@H](O)[C@H](O)[C@H]2O)[C@H](O)[C@H]1O[C@H]1O[C@H](CO)[C@@H](O)[C@H](N)[C@H]1O [AN, amikacin]","Phenotype, sensitivity",[5]; [18],"growth, TZP-"
same,"Phenotype, sensitivity",[5]; [19],"growth, TZP-"
same,MADM resistance phenotype,[6],S
same,susceptibility,[6]; all ABCC-containing specimens,susceptible
same,susceptibility,[7]; all PSAE-containing specimens,susceptible
same,MADM resistance phenotype,"[7]; specimen DH 430, Mini-BAL",S
same,MADM resistance phenotype,"[7]; specimen DH 554, BAL",S
same,MADM resistance phenotype,"[7]; specimen DH 641, Mini-BAL",S
same,Cx (culture result) susceptibility,"[8]; specimen DH 430, Mini-BAL",S
same,Cx (culture result) susceptibility,"[8]; specimen DH 554, BAL",S
same,Cx (culture result) susceptibility,"[8]; specimen DH 641, Mini-BAL",S
"CC(C)(O/N=C(\C(=O)N[C@@H]1C(=O)N2C(C(=O)[O-])=C(C[n+]3ccccc3)CS[C@H]12)c1csc(N)n1)C(=O)O [CAZ, ceftazidime]","Phenotype, sensitivity",[9],all growth
same,"Phenotype, sensitivity",[5]; [18],"growth, TZP-"
same,"Phenotype, sensitivity",[5]; [19],"growth, TZP-"
"CCC[C@@H]1C[C@@H](C(=O)N[C@@H]([C@H]2O[C@H](SC)[C@H](O)[C@@H](O)[C@H]2O)[C@H](C)Cl)N(C)C1 [CLI, clindamycin]",MADM resistance phenotype,"[10]; specimen DH 425, Mini-BAL",S
same,MADM resistance phenotype,"[10]; specimen DH 427, Mini-BAL",S
same,MADM resistance phenotype,"[10]; specimen DH 439, Mini-BAL",S
same,MADM resistance phenotype,"[10]; specimen DH 440, BAL",S
same,MADM resistance phenotype,"[10]; specimen DH 457, BAL",S
same,MADM resistance phenotype,"[10]; specimen DH 485, BAL",S
same,MADM resistance phenotype,"[10]; specimen DH 509, BAL",S
same,MADM resistance phenotype,"[10]; specimen DH 514, Mini-BAL",S
same,MADM resistance phenotype,"[10]; specimen DH 543, BAL",S
same,MADM resistance phenotype,"[10]; specimen DH 550, BAL",S
same,MADM resistance phenotype,"[10]; specimen DH 556, Mini-BAL",S
same,MADM resistance phenotype,"[10]; specimen T12, ETA",S
same,Cx (culture result) susceptibility,"[11]; specimen DH 425, Mini-BAL",S
same,Cx (culture result) susceptibility,"[11]; specimen DH 427, Mini-BAL",S
same,Cx (culture result) susceptibility,"[11]; specimen DH 439, Mini-BAL",S
same,Cx (culture result) susceptibility,"[11]; specimen DH 440, BAL",S
same,Cx (culture result) susceptibility,"[11]; specimen DH 457, BAL",S
same,Cx (culture result) susceptibility,"[11]; specimen DH 485, BAL",S
same,Cx (culture result) susceptibility,"[11]; specimen DH 509, BAL",S
same,Cx (culture result) susceptibility,"[11]; specimen DH 514, Mini-BAL",S
same,Cx (culture result) susceptibility,"[11]; specimen DH 543, BAL",S
same,Cx (culture result) susceptibility,"[11]; specimen DH 550, BAL",S
same,Cx (culture result) susceptibility,"[11]; specimen DH 556, Mini-BAL",S
same,Cx (culture result) susceptibility,"[11]; specimen T12, ETA",S
CCCCN1C(=O)C(=CC=Cc2c(O)n(CCCC)c(=O)n(CCCC)c2=O)C(=O)N(CCCC)C1=O [DiBAC4(3)],cells stained,[12],95%
"C[C@@H](O)[C@H]1C(=O)N2C(C(=O)O)=C(S[C@@H]3CN[C@H](C(=O)Nc4cccc(C(=O)O)c4)C3)[C@H](C)[C@H]12 [ETP, ertapenem]",growth of susceptible strains,"[13]; ETP at 16 μg/mL, FIG. 20",fail to grow
same,growth morphology,"[13]; ETP exposure, KPC clinical isolate, FIG. 19",abnormal growth morphology
"C[C@@H](O)[C@H]1C(=O)N2C(C(=O)O)=C(SCCN=CN)C[C@H]12 [IMP, imipenem]",Cx (culture result) susceptibility,[14],S
same,MADM resistance phenotype,[6],S
same,MADM resistance phenotype,"[7]; specimen DH 430, Mini-BAL",S
same,MADM resistance phenotype,"[7]; specimen DH 554, BAL",S
same,MADM resistance phenotype,"[7]; specimen DH 641, Mini-BAL",S
same,Cx (culture result) susceptibility,"[8]; specimen DH 430, Mini-BAL",S
same,Cx (culture result) susceptibility,"[8]; specimen DH 554, BAL",S
same,Cx (culture result) susceptibility,"[8]; specimen DH 641, Mini-BAL",S
"[Cl-].[Na+] [NaCl, sodium chloride]",cells that did not exhibit a response,[15]; heat killed cells,90%
same,cells decreasing in size,[15]; overnight refrigerator stock cultures,77%
"Cc1onc(-c2ccccc2)c1C(=O)N[C@@H]1C(=O)N2[C@@H]1SC(C)(C)[C@@H]2C(=O)O [OXA, oxacillin]",Cx (culture result) susceptibility,"[11]; specimen DH 425, Mini-BAL",S
same,Cx (culture result) susceptibility,"[11]; specimen DH 427, Mini-BAL",S
same,Cx (culture result) susceptibility,"[11]; specimen DH 439, Mini-BAL",R
same,Cx (culture result) susceptibility,"[11]; specimen DH 440, BAL",S
same,Cx (culture result) susceptibility,"[11]; specimen DH 457, BAL",S
same,Cx (culture result) susceptibility,"[11]; specimen DH 485, BAL",S
same,Cx (culture result) susceptibility,"[11]; specimen DH 509, BAL",S
same,Cx (culture result) susceptibility,"[11]; specimen DH 514, Mini-BAL",S
same,Cx (culture result) susceptibility,"[11]; specimen DH 543, BAL",S
same,Cx (culture result) susceptibility,"[11]; specimen DH 550, BAL",S
same,Cx (culture result) susceptibility,"[11]; specimen DH 556, Mini-BAL",S
same,Cx (culture result) susceptibility,"[11]; specimen T12, ETA",R
"CC[N+](C)(CC)CCC[n+]1c(-c2ccccc2)c2cc(N)ccc2c2ccc(N)cc21.[I-].[I-] [PI, Propidium iodide]",fluorescent signal intensity vs. background,[16],not as high as for YO-PRO-1
carboxyfluorescein diacetate succinimidyl ester [CFDA-SE],fluorescence,[17],no fluorescence was observed
